In brackets after ≈: the same amount, converted by molar mass. Like-named read-outs stand apart in the source and are kept apart here.
How the values were obtained:
[1] = tested on: Eschericia coli KY4271 ATCC26; assay: MIC, agar dilution method, pH 8.0; type: cell-based; conditions: Escherichia coli, ATCC26; pH 8.0; E. coli KY4271; read-out: Minimum inhibition concentration (MIC), EC
Description: (§1) Measurement was carried out according to the agar dilution method, using a medium of pH 8.0, or the Japanese Antibiotic Medicament Standard, using a medium of pH 7.2 Units are in mcg/ml.
E.C.: Eschericia coli KY4271 ATCC26

[2] = tested on: Pseudomonas aeruginosa R5 KY8512; assay: MIC, agar dilution method, pH 7.2; type: cell-based; conditions: R5KY8512, pH 7.2, P. aeruginosa R5 KY8512, 6**: neomycin, producing phosphotransferase type I and type II, read-out: Minimum inhibition concentration (MIC)
Description: as §1
6: neomycin, producing phosphotransferase type I and type II.

[3] = tested on: Staphylococcus a ureus 226; assay: MIC, agar dilution method, pH 7.2; type: cell-based, Staphylococcus aureus; conditions: pH 7.2; Staphylococcus aureus 226; read-out: Minimum inhibition concentration (MIC)
Description: as §1

[4] = tested on: Eschericihia coli GN2411-5; assay: MIC, agar dilution method, pH 7.2; type: cell-based; conditions: Escherichia coli, GN2411, pH 7.2, read-out: Minimum inhibition concentration (MIC)
Description: as §1

[5] = tested on: Pseudomonas aeruginosa BMH# 1; assay: MIC, agar dilution method, pH 7.2; type: cell-based; conditions: pH 7.2; Pseudomonas aeruginosa BMH# 1; read-out: Minimum inhibition concentration (MIC)
Description: as §1

[6] = tested on: Pseudomonas aeruginosa UCLA 4184; assay: MIC, agar dilution method, pH 7.2; type: cell-based; conditions: UCLA4184; pH 7.2; Pseudomonas aeruginosa UCLA 4184; read-out: Minimum inhibition concentration (MIC)
Description: as §1

[7] = tested on: Salmonella enteritidis G-14; assay: MIC, agar dilution method, pH 7.2; type: cell-based; conditions: Salmonella enterica
Description: as §1

[8] = tested on: Klebsiella pneumoniae KY4274; assay: MIC, agar dilution method, pH 7.2; type: cell-based
Description: as §1

Proteus vulgaris JJ = assay: MIC, agar dilution method, pH 7.2; type: cell-based
Description: as §1

Shigella sonnei ATCC9290 = assay: MIC, agar dilution method, pH 7.2; type: cell-based; conditions: read-out: Minimum inhibition concentration (MIC)
Description: as §1

[9] = tested on: Staphylococcus aureus Smith (A); assay: MIC, agar dilution method, pH 7.2; type: cell-based; conditions: pH 7.2; Staphylococcus aureus Smith (A); read-out: Minimum inhibition concentration (MIC)
Description: as §1

[10] = tested on: Staphylococcus aureus 209-P; assay: MIC, agar dilution method, pH 7.2; type: cell-based; conditions: pH 7.2; Staphylococcus aureus 209-P; read-out: Minimum inhibition concentration (MIC)
Description: as §1

Escherichia coli NIHTC-2 = assay: MIC, agar dilution method, pH 7.2; type: cell-based
Description: as §1

[11] = tested on: Escherichia coli R20 KY8349; assay: MIC, agar dilution method, pH 7.2; type: cell-based
Description: as §1
5: neomycin, producing phosphotransferase type I.

[12] = tested on: Escherichia coli R12 Z-338; assay: MIC, agar dilution method, pH 7.2; type: cell-based
Description: as §1
(§2) **1: gentamicin, producing adenylsynthetase.

[13] = tested on: Escherichia coli 57R/W677; assay: MIC, agar dilution method, pH 7.2; type: cell-based; conditions: 57R/W677, pH 7.2, read-out: Minimum inhibition concentration (MIC)
Description: as §1, §2

Escherichia coli 76-2 = assay: MIC, agar dilution method, pH 7.2; type: cell-based
Description: as §1, §2

[14] = tested on: Klebsiella pneumoniae 3020 Y-60; assay: MIC, agar dilution method, pH 7.2; type: cell-based; conditions: 3020Y60; pH 7.2; Klebsiella pneumoniae 3020 Y-60; 1**: gentamicin, producing adenylsynthetase; read-out: Minimum inhibition concentration (MIC)
Description: as §1, §2

[15] = tested on: Salmonella typhosa KY4278 ATCC9992; assay: MIC, agar dilution method, pH 8.0; type: cell-based; conditions: Salmonella enterica, pH 8, read-out: Minimum inhibition concentration (MIC), ST
Description: as §1
S.T.: Salmonella typhosa KY4278 ATCC9992

[16] = tested on: Proteus vulgaris KY4277 ATCC6897; assay: MIC, agar dilution method, pH 8.0; type: cell-based; conditions: ATCC6897; pH 8.0; Proteus vulgaris KY4277; read-out: Minimum inhibition concentration (MIC), PV
Description: as §1

[17] = tested on: Shigella sonnei KY4281 ATCC9290; assay: MIC, agar dilution method, pH 8.0; type: cell-based; conditions: ATCC9290; pH 8.0; Shigella sonnei KY4281; read-out: Minimum inhibition concentration (MIC), SS
Description: as §1

[18] = tested on: Escherichia coli R19 KY8348; assay: MIC, agar dilution method, pH 7.2; type: cell-based; conditions: R19KY8348, pH 7.2, E. coli R19 KY8348, 4**: gentamicin, producing acetyltransferase type I, read-out: Minimum inhibition concentration (MIC)
Description: as §1
(§3) 4: gentamicin, producing acetyltransferase type I.

[19] = tested on: Pseudomonas aeruginosa R4 KY8511; assay: MIC, agar dilution method, pH 7.2; type: cell-based; conditions: R4KY8511, pH 7.2, P. aeruginosa R4 KY8511, 4**: gentamicin, producing acetyltransferase type I, read-out: Minimum inhibition concentration (MIC)
Description: as §1, §3

Eschericihia coli 3100 = assay: MIC, agar dilution method, pH 7.2; type: cell-based, Escherichia coli; conditions: Escherichia coli; pH 7.2; E. coli 3100; read-out: Minimum inhibition concentration (MIC)
Description: as §1

[20] = tested on: Escherichia coli R18 KY8321; assay: MIC, agar dilution method, pH 7.2; type: cell-based; conditions: R18KY8321, E. coli R18 KY8321, 2**: gentamicin, producing adenylsynthetase and neomycin phosphotransferase type II, read-out: Minimum inhibition concentration (MIC)
Description: as §1
2: gentamicin, producing adenylsynthetase and neomycin phosphotransferase

Bacillus subtilis KY4273 = assay: MIC, agar dilution method, pH 8.0; type: cell-based; conditions: pH 8.0; Bacillus subtilis KY4273; read-out: Minimum inhibition concentration (MIC), BS
Description: as §1
B.S.: Bacillus subtilis KY4273

Providencia sp 164 = assay: MIC, agar dilution method, pH 7.2; type: cell-based; conditions: pH 7.2; Providencia sp 164; 7**: gentamicin, producing acetyltransferase type II; read-out: Minimum inhibition concentration (MIC)
Description: as §1
7: gentamicin, producing acetyltransferase type II.

[21] = tested on: Escherichia coli R17 Z343; assay: MIC, agar dilution method, pH 7.2; type: cell-based
Description: as §1
(§4) 3: kanamycin, producing acetyltransferase.

[22] = tested on: Pseudomonas aeruginosa R9 KY8516; assay: MIC, agar dilution method, pH 7.2; type: cell-based; conditions: R9KY8516, pH 7.2, P. aeruginosa R9 KY8516, 3**: kanamycin, producing acetyltransferase, read-out: Minimum inhibition concentration (MIC)
Description: as §1, §4

Serratia marcescens 1065 = assay: MIC, agar dilution method, pH 7.2; type: cell-based; conditions: Serratia marcescens, 1065, pH 7.2, read-out: Minimum inhibition concentration (MIC)
Description: as §1, §4

[23] = tested on: Staphylococcus aureus KY4279 ATCC6538P; assay: MIC, agar dilution method, pH 8.0; type: cell-based; conditions: pH 8.0, Staphylococcus aureus KY4279, read-out: Minimum inhibition concentration (MIC), SA
Description: as §1
S.A.: Staphylococcus aureus KY4279 ATCC6538P

[24] = tested on: Klebsiella pneumoniae KY4275 ATCC10031; assay: MIC, agar dilution method, pH 8.0; type: cell-based; conditions: ATCC10031; pH 8.0; Klebsiella pneumoniae KY4275; read-out: Minimum inhibition concentration (MIC), KP
Description: as §1
K.P.: Klebsiella pneumoniae KY4275 ATCC10031.

| SMILES | MIC [1] [µg/mL] | MIC [2] [µg/mL] | MIC [3] [µg/mL] | MIC [4] [µg/mL] | MIC [5] [µg/mL] | MIC [6] [µg/mL] | MIC (Shigella sonnei ATCC9290) [µg/mL] | MIC [9] [µg/mL] | MIC [10] [µg/mL] | MIC [13] [µg/mL] | MIC [14] [µg/mL] | MIC [15] [µg/mL] | MIC [16] [µg/mL] | MIC [17] [µg/mL] | MIC [18] [µg/mL] | MIC [19] [µg/mL] | MIC (Eschericihia coli 3100) [µg/mL] | MIC [20] [µg/mL] | MIC (Bacillus subtilis KY4273) [µg/mL] | MIC (Providencia sp 164) [µg/mL] | further results |
| --- | --- | --- | --- | --- | --- | --- | --- | --- | --- | --- | --- | --- | --- | --- | --- | --- | --- | --- | --- | --- | --- |
| CNCC[C@H](O)CN(C)[C@H]1[C@@H](O)[C@H](O[C@H]2O[C@H]([C@H](C)N)CC[C@H]2N)[C@@H](N)[C@H](O)[C@@H]1OC [Compound 28, 4-N-[(S)-4-methylamino-2-hydroxybutyl]fortimicin B] | 0.08 (≈ 0.178 µM) | 12.5 (≈ 27.8 µM) | 0.4 (≈ 0.89 µM) | 6.25 (≈ 13.9 µM) | 12.5 (≈ 27.8 µM) | 50 (≈ 111 µM) | 6.25 (≈ 13.9 µM) | 0.4 (≈ 0.89 µM) | 0.78 (≈ 1.73 µM) | 12.5 (≈ 27.8 µM) | 12.5 (≈ 27.8 µM) | 0.08 (≈ 0.178 µM) | 0.32 (≈ 0.712 µM) | 0.63 (≈ 1.4 µM) | > 100 | > 100 | 12.5 (≈ 27.8 µM) | 12.5 (≈ 27.8 µM) | 0.04 (≈ 0.089 µM) | 25 (≈ 55.6 µM) | MIC ([7]; pH 7.2, Salmonella enteritidis G-14, read-out: Minimum inhibition concentration (MIC)): 3.12 µg/mL (≈ 6.94 µM); MIC ([8]; pH 7.2, Klebsiella pneumoniae KY4274, read-out: Minimum inhibition concentration (MIC)): 3.12 µg/mL (≈ 6.94 µM); MIC (Proteus vulgaris JJ; pH 7.2, Proteus vulgaris JJ, read-out: Minimum inhibition concentration (MIC)): 3.12 µg/mL (≈ 6.94 µM); MIC (Escherichia coli NIHTC-2; NIHTC2, pH 7.2, Escherichia coli NIHTC-2, read-out: Minimum inhibition concentration (MIC)): 1.56 µg/mL (≈ 3.47 µM); MIC ([11]; R20KY8349, pH 7.2, read-out: Minimum inhibition concentration (MIC)): 1.25 µg/mL (≈ 2.78 µM); MIC ([12]; R12Z338, pH 7.2, read-out: Minimum inhibition concentration (MIC)): 6.25 µg/mL (≈ 13.9 µM); MIC (Escherichia coli 76-2; Escherichia coli, 762, pH 7.2, E. coli 76-2, 1**: gentamicin, producing adenylsynthetase, read-out: Minimum inhibition concentration (MIC)): 3.12 µg/mL (≈ 6.94 µM); MIC ([21]; R17Z343, pH 7.2, E. coli R17 Z343, 3**: kanamycin, producing acetyltransferase, read-out: Minimum inhibition concentration (MIC)): 3.12 µg/mL (≈ 6.94 µM); MIC [22]: 50 µg/mL (≈ 111 µM); MIC (Serratia marcescens 1065): 6.25 µg/mL (≈ 13.9 µM); MIC [23]: 0.04 µg/mL (≈ 0.089 µM); MIC [24]: 0.32 µg/mL (≈ 0.712 µM) |
| CO[C@H]1[C@@H](O)[C@H](N)[C@@H](O[C@H]2O[C@H]([C@H](C)N)CC[C@H]2N)[C@H](O)[C@@H]1N(C)CC(O)CCN (stereo partly drawn) [Compound 29, 4-N-[(R,S)-4-amino-2-hydroxybutyl]fortimicin B] | 0.16 (≈ 0.367 µM) | 12.5 (≈ 28.7 µM) | 0.78 (≈ 1.79 µM) | 6.25 (≈ 14.3 µM) | 12.5 (≈ 28.7 µM) | 25 (≈ 57.4 µM) | 6.25 (≈ 14.3 µM) | 0.4 (≈ 0.918 µM) | 0.4 (≈ 0.918 µM) | 12.5 (≈ 28.7 µM) | 25 (≈ 57.4 µM) | 0.16 (≈ 0.367 µM) | 0.32 (≈ 0.735 µM) | 0.63 (≈ 1.45 µM) | > 100 | > 100 | 12.5 (≈ 28.7 µM) | 12.5 (≈ 28.7 µM) | 0.04 (≈ 0.0918 µM) | 25 (≈ 57.4 µM) | MIC ([7]; ENTERITIDIS, pH 7.2, read-out: Minimum inhibition concentration (MIC)): 6.25 µg/mL (≈ 14.3 µM); MIC ([8]; Klebsiella pneumoniae, KY4274, pH 7.2, read-out: Minimum inhibition concentration (MIC)): 6.25 µg/mL (≈ 14.3 µM); MIC (Proteus vulgaris JJ; Proteus vulgaris, pH 7.2, read-out: Minimum inhibition concentration (MIC)): 3.12 µg/mL (≈ 7.16 µM); MIC (Escherichia coli NIHTC-2; Escherichia coli, NIHTC2, pH 7.2, read-out: Minimum inhibition concentration (MIC)): 3.12 µg/mL (≈ 7.16 µM); MIC ([11]; R20KY8349, pH 7.2, E. coli R20 KY8349, 5**: neomycin, producing phosphotransferase type I, read-out: Minimum inhibition concentration (MIC)): 3.12 µg/mL (≈ 7.16 µM); MIC ([12]; R12Z338, pH 7.2, E. coli R12 Z-338, 1**: gentamicin, producing adenylsynthetase, read-out: Minimum inhibition concentration (MIC)): 12.5 µg/mL (≈ 28.7 µM); MIC (Escherichia coli 76-2; Escherichia coli, 762, pH 7.2, read-out: Minimum inhibition concentration (MIC)): 3.12 µg/mL (≈ 7.16 µM); MIC ([21]; R17Z343, pH 7.2, read-out: Minimum inhibition concentration (MIC)): 3.12 µg/mL (≈ 7.16 µM); MIC [22]: 50 µg/mL (≈ 115 µM); MIC (Serratia marcescens 1065): 6.25 µg/mL (≈ 14.3 µM); MIC [23]: 0.08 µg/mL (≈ 0.184 µM); MIC [24]: 0.63 µg/mL (≈ 1.45 µM) |
